The results in this text go back to patent US20040014772A1, “Compositions and methods for treating glomerular disorders” (priority 2000, published 2004).

Series [1] is described as follows: Weight loss/gain of rats before and after treatments (PAN-induced nephrotic syndrome). As to conditions: for Body weight After Treatment (day7): rats, day 7, PAN 7.5 mg/100 g BW iv, CM 120 mg/kg ip twice a day, PB 400 mg/kg ip every other day, means ± SE. It is filed as in vivo, rat. The method, then:
(§1) Two different general CYP inhibitors were used, cimetidine (CM) and piperonyl butoxide (PB). Cimetidine has imidazole and cyano groups that inhibit CYP by interacting with the heme moiety. […] To determine the effect of the CYP inhibitors in PAN- induced nephrotic syndrome, CM (120 mg/kg BW) was administered intraperitoneal 1 h prior to PAN injection and then twice a day. Piperonyl butoxide (PB) which yields a metabolite that binds to the heme moiety of CYP, was given intraperitoneal (400 mg/kg BW) 4h before PAN injection and then every other day.
Also, the CYP2B1 inhibitor piperine (PIP), a methylenedioxyphenyl compound found in black and red pepper was used. PIP is believed to inhibit CYP2B1 by forming an inhibitory complex therewith. PIP was administered at a dose of 85 mg/kg of body weight (BW) by an intraperitoneal injection 16 hours prior to PAN injection and then once a day.

Series [2] concerns PAN-induced nephrotic syndrome. Nature of the series: PAN-induced nephrotic syndrome: proteinuria and serum albumin. It is filed as in vivo, rat. As to conditions: PAN-treated rats; for proteinuria: daily urine protein to day 7; for serum albumin: day 7. The method, then:
(§2) Male Sprague-Dawley rats weighing 200-250 g were injected either saline or a single intravenous injection of PAN (Sigma, St. Louis) in a dose of 7.5 mg/100g BW (day 0) as described in Ueda et al, 19996, Kidney Intl. 49:370-373. Animals were housed in separate metabolic cages and allowed free access to rat chow (Purina). Daily urine protein excretion was determined and animals were sacrificed on day 7. Blood was obtained for the measurement of serum albumin and the evaluation of renal function as measured by blood urea nitrogen (BUN) and plasma creatinine. Cell fraction of the glomeruli was prepared for bleomycin detectable iron assay. The microsome fraction was utilized for the measurement of CYP content.
as §1
PIP is believed to inhibit CYP2B1 by forming an inhibitory complex therewith. PIP was administered at a dose of 85 mg/kg of body weight (BW) by an intraperitoneal injection 16 hours prior to PAN injection and then once a day.

The subject of series [3] is glomeruli of PAN-treated rats. Nature of the series: Bleomycin detectable iron assay in glomeruli of PAN-treated rats. As to conditions: for bleomycin detectable iron content in the glomeruli: PAN-treated rats, CM 120 mg/kg, PB 400 mg/kg or PIP 85 mg/kg ip, 6 hours, day 4, day 7. It is filed as in vivo, rat. On the procedure:
Glomeruli were isolated by a combination of sieving and differential centrifugation as described in Ueda et al, 19996, Kidney Intl. 49:370-373, and Baliga et al, 1992, Am. J. Physiol. 263:214-221. Glomeruli isolated from two rats were pooled together (as N of 1) for the isolation of microsomes. Iron capable of catalyzing free radical reactions was measured by bleomycin detectable iron assay as described by Gutteridge et al, 1981, Biochem. J. 199:263-265, Gutteridge et al, 1982, Biochem. J. 206:605-609, Baliga et al, 1993, Bioche.

The next series deals with cytochrome P450. Nature of the series: Cytochrome P450 content of microsome fraction (CO difference spectrum). As to conditions: for CYP content in kidney / glomeruli: PAN-treated rats, day 7. On the procedure:
as §2

Another series relates to ferritin. In words: Ferritin immunohistochemistry in kidney of PAN-treated rats. It is filed as in vivo, rat. On the procedure:
Kidney cortical sections were fixed in 10% buffered formalin for 6 hours and embedded in paraffin. After deparaffinization and antigen retrieval, the sections were immunolabeled and visualized according to an avidin-biotin complex (ABC) method. The primary antibody for detection of ferritin was polyclonal anti-Ferritin (L subunit) antibody (605022; Boehringer Mannheim Corp., Indianapolis, Ind., USA).

Series [4] deals with glomerular epithelial cells GEC. Nature of the series: PAN induced catalytic iron release from GEC (bleomycin detectable iron). As to conditions: PAN 1.5 mM 1 h; preincubation CM 2 mM, PB 25 μM, RN 1 mM, PIP 0.2 mM, pyruvate 10 mM. It is filed as cell-based, rat. On the procedure: Iron capable of catalyzing free radical reactions was measured by bleomycin detectable iron assay as described by Gutteridge et al, 1981, Biochem. J. 199:263-265, Gutteridge et al, 1982, Biochem. J. 206:605-609, Baliga et al, 1993, Bioche. J. 291:901-905, Baliga et al, 1996, Kidney Int. 49:362-369, Baliga et al, Kidney Int. 53:394-401, Ueda et al, 1996, Kidney Int. 49:370-373, Baliga et al, 1998, Kidney Int. 54:1562-1569.
Confluent cell monolayer was washed three times with Chelex-treated HBSS to remove as much contaminating iron as possible. The GEC monolayer was then incubated in Chelex-treated HBSS with cytotoxic dose of PAN for a period time at 37° C. before substantial cell killing and after significant iron release occurs (1.5 mM, 60 min, based on a time course study on iron release induced by PAN, data not shown). The incubation medium was then collected for the measurement of catalytic iron using bleomycin detectable iron assay as mentioned above. To determine the effect of CYP inhibitors on the iron release, GEC monolayer was preincubated with CM (2 mM), RN (1 mM, as a control of CM) for 30 min or PB (25 uM) for 60 min in Chelex-treated HBSS at 37° C. After the incubation, the medium with CYP inhibitor was discarded and then the cell monolayers were washed twice with chelex-treated HBSS prior to the incubation of PAN.

For another series, the system named is CYP2B1. In words: CYP2B1 content in GEC exposed to PAN (western blot). In kind it is cell-based, rat. As to conditions: PAN 1.5 mM for 2 hr at 37° C.; CM 2 mM, PIP 0.2 mM, pyruvate 10 mM. An excerpt:
(§3) The microsome fraction obtained was subjected to SDS-page electrophoresis in 1 mm slab gels. The separated forms were transferred from gel to a nitrocellulose sheet using a Mini Trans-blot electroblotting unit. The primary antibodies were monoclonal anti-HO-1 (OSA-111, StressGen, Victoria, BC, Canada) and monoclonal anti-CYP2B1 (PM25, Oxford Biomedical Research, Oxford, Mich., USA). Subsequent to primary and secondary antibody (peroxidase-labeled) treatment, the blots were visualized by enhanced chemiluminescence method.

In a further series the test system is HO-1. In words: HO-1 induction in GEC exposed to PAN (western blot). In kind it is cell-based, rat. To be noted: PIP 0.2 mM, CM 2 mM, pyruvate 10 mM.
Description: as §3

Each structure is given as a SMILES string. “Also recorded” adds a separate entry of the source.

Regarding `CN/C(=N/CCSCc1nc[nH]c1C)NC#N` [CM, cimetidine], in series [1], the “Body weight After Treatment (day7)” value is 253 ± 9 g. Moreover, in series [2], the proteinuria entry was “substantial protection” and the serum albumin entry is “prevented”. Further, the proteinuria result in series [2] (listed as C<) is recorded as “significant protection”. Also, the “bleomycin detectable iron content in the glomeruli” value in series [3] is “significantly prevent the increase; also recorded: significantly prevented this increase”. The “CYP content in kidney / glomeruli” value with cytochrome P450 is given as “significantly preserve”. In the series with ferritin, the “ferritin content in the glomeruli and the tubules” value is reported as “markedly reduced the up-regulation”. In addition, in series [4], the “bleomycin detectable (catalytic) iron release from GEC” value is given as “drastically prevents the increase; also recorded: prevented the increase”. Further, the “CYP2B1 content in GEC” value with CYP2B1 is reported as “preserved”. Moreover, the “HO-1 induction in GEC” value in the series on HO-1 is “significantly prevented the induction”.

With `CN(C)c1ncnc2c1ncn2[C@@H]1O[C@H](CO)[C@@H](N)[C@H]1O` [PAN, puromycin aminonucleoside], the “ascites and weight gain at the time of sacrifice” value in series [1] (compared to control animals and those treated with CYP inhibitors) is “developed ascites and significant weight gain”. The “Body weight After Treatment (day7)” value in series [1] was found to be 291 ± 8 g. In addition, in series [2], the proteinuria entry was “significant proteinuria on the fourth day; also recorded: nephrotic range proteinuria” and the serum albumin result is “markedly decreased; also recorded: significant decrease”. In series [3], the “bleomycin detectable iron content in the glomeruli” value is reported as “markedly elevated”. In series [3] (rats 7 days after PAN 7.5 mg/100 g BW iv, control value 39, N=3, P<0.01), the “catalytic iron content in the glomeruli (bleomycin detectable iron assay)” value came out at 160 nmol/mg protein. In addition, the “CYP content in the liver” value with cytochrome P450 (PAN treated vs untreated rats) is on record as “no difference”. Also, the “CYP content in kidney / glomeruli” value with cytochrome P450 is recorded as “not detectable”. Besides, the “ferritin content in the glomeruli and the tubules” value in the series with ferritin is listed as “significant increase”. For the same compound, in series [4], the “bleomycin detectable (catalytic) iron release from GEC” value was “significant increase”. The “CYP2B1 content in GEC” value in the series with CYP2B1 is reported as “significant reduction”. Further, the “HO-1 induction in GEC” value in the series with HO-1 is reported as “marked induction”.
